Data reported in patent publication US9486457B2, “Use of cinnabarinic acid as a modulator of immune responses in autoimmune disorders” (The Regents of the University of California, priority 2010, dated 2016).
“Also recorded” adds a separate entry of the source.

Columns and labels:
lymphocytes = assay: CYP1A1 transcription within lymphocytes; format: cell-based
Description: (§1) 3-HAA is particularly susceptible to oxidation, resulting in the formation of the metabolite cinnabarinic acid (CA) through dimerization of two molecules of 3-HAA (24). […] In addition, CA has potent effects on thymocyte maturation (25) not unlike what has been observed in rodents treated with TCDD (26-28) or in transgenic mice with a constitutively active AHR (29). To test the hypothesis that CA is an AHR ligand, we obtained pure CA, prepared through a chemical synthesis using 3-HAA as a starting material and purified by HPLC, and analyzed its ability to bind to and activate the AHR in vitro.

zebrafish embryos = assay: CYP1A1 induction in zebrafish embryos; format: in vivo; conditions: within 72 hours
Description: as §1

[1] = system: experimental allergic encephalomyelitis (EAE); assay: Experimental allergic/autoimmune encephalomyelitis (EAE) induced with MOG peptide and CFA; format: in vivo, C57BL/6 mice; conditions: for development / induction of EAE (disease occurrence and severity): single dose (1 mg/mouse) at Day 0 within the emulsion containing MOG peptide and adjuvant, compared to DMSO
Method: FIGS. 10A and 10B illustrate the number or frequency of cytokine producing cells within the CNS (or spleen) of mice treated at day 0 with 1 dose of CA (1 mg/mouse) or vehicle (DMSO) within the emulsion contain MOG peptide and adjuvant. Representative flow plots are shown at the bottom of the figures. EAE survival curve for 10 animals treated with CA or with DMSO showing that 1/10 animals treated with CA gets sick whereas 9/10 animals treated with vehicle (DMSO) are sick at the indicated timepoint.
However, TCDD and FICZ are both known AHR agonists, like CA, whereas 3,4 DAA appears to act as an antagonist. Therefore the regulation of the Th17/Th22/Treg cell differentiation pathways at the level of the AHR is likely to be more complex than merely reflecting the presence of an agonistic or antagonistic ligand. To assess whether CA was protective in EAE we performed a series of experiments in which CA was administered in a single dose (1 mg/mouse) contained within the emulsion used to induce disease.

AHR = target: T1, AHR (Mus musculus, UniProt P30561); assay: AHR-responsive (dioxin responsive element) GFP reporter assay in H1G1 mouse hepatoma cells; format: cell-based; conditions: agonist mode
T1 construct: murine hepatoma cell line stably transfected with an AhR-responsive (AhR-eGFP) reporter construct; endogenous in cells
T1 sequence (P30561 10-848): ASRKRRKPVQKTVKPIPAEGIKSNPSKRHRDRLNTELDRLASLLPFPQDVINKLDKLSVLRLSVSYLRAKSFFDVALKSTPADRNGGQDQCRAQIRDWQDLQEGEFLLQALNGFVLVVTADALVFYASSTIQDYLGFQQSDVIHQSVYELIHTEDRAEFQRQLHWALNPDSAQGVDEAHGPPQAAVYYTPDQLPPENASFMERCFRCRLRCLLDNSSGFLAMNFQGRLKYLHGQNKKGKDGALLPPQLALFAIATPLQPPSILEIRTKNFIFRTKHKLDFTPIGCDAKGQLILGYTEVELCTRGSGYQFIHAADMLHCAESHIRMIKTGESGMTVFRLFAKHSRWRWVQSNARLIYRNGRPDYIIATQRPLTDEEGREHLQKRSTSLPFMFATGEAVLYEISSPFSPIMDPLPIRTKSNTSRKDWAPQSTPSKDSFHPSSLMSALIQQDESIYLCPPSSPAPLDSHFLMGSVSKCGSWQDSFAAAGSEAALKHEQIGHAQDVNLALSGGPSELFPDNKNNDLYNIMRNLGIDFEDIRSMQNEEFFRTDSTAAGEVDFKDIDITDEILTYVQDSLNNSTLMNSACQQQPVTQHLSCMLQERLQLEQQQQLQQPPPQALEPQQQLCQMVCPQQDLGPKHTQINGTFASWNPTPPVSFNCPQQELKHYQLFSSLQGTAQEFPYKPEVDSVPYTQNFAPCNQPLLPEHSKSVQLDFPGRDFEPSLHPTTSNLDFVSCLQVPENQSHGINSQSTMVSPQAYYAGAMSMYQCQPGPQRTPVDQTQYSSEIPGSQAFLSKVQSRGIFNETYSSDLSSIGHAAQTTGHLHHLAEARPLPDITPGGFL
Description: (§2) We performed a precursory screen of all tryptophan metabolites including both 3-HKA and 3-HAA to bind to and act as agonists or antagonists of the AHR using two separate assays. First we examined the ability of 3-HKyn, 3-HAA, and PA to displace TCDD binding to the human AHR protein in vitro (20). […] We also measured AHR activation using a mouse hepatoma cell line (H1G1) that stably expresses a green fluorescent protein (GFP) reporter construct downstream of a series of dioxin responsive elements (FIG. 7A) (21).

human AHR protein = target: T2, human AHR protein (Homo sapiens, UniProt P35869); assay: Displacement of TCDD binding to in vitro translated human AHR protein; conditions: cell-free
T2 sequence (P35869 11-848): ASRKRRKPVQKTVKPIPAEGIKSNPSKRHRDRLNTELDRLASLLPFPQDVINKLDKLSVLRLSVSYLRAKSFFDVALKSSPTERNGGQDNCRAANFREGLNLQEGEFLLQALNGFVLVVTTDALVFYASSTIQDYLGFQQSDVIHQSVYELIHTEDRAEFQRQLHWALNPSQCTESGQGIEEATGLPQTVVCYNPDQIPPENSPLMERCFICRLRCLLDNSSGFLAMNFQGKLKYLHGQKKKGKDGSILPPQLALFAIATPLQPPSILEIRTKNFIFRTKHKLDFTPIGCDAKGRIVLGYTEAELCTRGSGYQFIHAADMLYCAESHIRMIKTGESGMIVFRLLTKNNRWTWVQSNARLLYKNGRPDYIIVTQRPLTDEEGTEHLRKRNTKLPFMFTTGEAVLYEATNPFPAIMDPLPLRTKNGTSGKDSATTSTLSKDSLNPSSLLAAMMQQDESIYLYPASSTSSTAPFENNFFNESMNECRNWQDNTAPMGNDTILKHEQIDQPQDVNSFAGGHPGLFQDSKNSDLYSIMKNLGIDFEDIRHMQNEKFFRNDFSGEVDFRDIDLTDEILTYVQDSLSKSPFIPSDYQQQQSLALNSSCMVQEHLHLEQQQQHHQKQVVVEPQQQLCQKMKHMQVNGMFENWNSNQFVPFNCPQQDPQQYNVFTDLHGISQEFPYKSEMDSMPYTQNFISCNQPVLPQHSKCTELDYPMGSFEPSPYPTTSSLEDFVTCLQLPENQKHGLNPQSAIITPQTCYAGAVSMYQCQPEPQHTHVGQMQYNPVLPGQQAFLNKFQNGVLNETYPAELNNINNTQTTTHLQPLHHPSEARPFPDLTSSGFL
Description: as §2

human naïve CD4+ T cells = assay: IL-22 induction in cultured human naïve CD4+ T cells stimulated with anti-CD3/anti-CD28 under Th17 polarizing conditions; format: cell-based; conditions: CA 25 μM in FIG. 8D
Description: This is AHR dependent as inclusion of an AHR antagonist fully abrogated effect.
FIG. 8: CA is an endogenous AhR agonist generated by oxidative dimerization of 3-HAA. (A) An alternative pathway of 3-HAA metabolism leads to the generation of CA either by non-enzymatic (oxidation) or enzymatic (laccase, ceruloplasmin) processes. CA is structurally similar to the synthetic AhR ligand TCDD. […] Data are representative of three similar experiments.

[2] = system: naïve (CD45RA+CCR7+CD95−CD25−) CD4+ T cells; assay: Foxp3 induction in stimulated naïve CD4+ T cells; format: cell-based, human; conditions: stimulated naïve CD4+ T cells in vitro
Description: FIG. 9: The synthetic 3-HAA analogue 3,4 DAA (Tranilast) is an AhR antagonist and promotes the induction of Foxp3 by stimulated CD4+ T cells. (A) 3,4 DAA shares some structural similarities to 3-HAA (highlighted region).
Therefore we asked whether T cells treated with 3,4 DAA might be prompted to differentiate into Treg cells through upregulation of the transcription factor Foxp3 (26).

[3] = single dose 1 mg/mouse in the emulsion

Nc1c(C(=O)O)c2nc3c(C(=O)O)cccc3oc-2cc1=O [Cinnabarinic Acid, cinnabarinic acid]
CYP1A1 transcription (lymphocytes): upregulation of CYP1A1 transcription within lymphocytes | CYP1A1 induction (zebrafish embryos): potent induction of CYP1A1 in zebrafish embryos | animals that get sick (EAE survival curve) ([1]; 10 animals, 1 dose of CA (1 mg/mouse) at day 0, 9/10 with vehicle (DMSO)): 1/10 | Foxp3+ Treg cells in the CNS [1, 3]: but not in the CNS | Foxp3+ Treg cells in the spleen [1, 3]: slight, but significant, increase in Foxp3+ Treg cells in the spleen | frequency and number of Th17 and Th22 cells in the spleen [1, 3]: increase in the frequency and number of Th17 and Th22 cells in the spleen | frequency of infiltrating Th17 and Th22 cells in the CNS [1, 3]: decrease in the frequency of infiltrating Th17 and Th22 cells | number of infiltrating T cells in the central nervous system (CNS) [1, 3]: greatly reduced number of infiltrating T cells in the central nervous system (CNS) | development / induction of EAE (disease occurrence and severity) [1]: inhibits the development of experimental allergic encephalomyelitis (EAE); also recorded: inhibits the induction of EAE | development / induction of EAE (disease occurrence and severity) ([1]; listed as CA): suppress autoimmunity in a mouse model of multiple sclerosis; also recorded: significant reduction of disease occurrence and severity; also recorded: almost completely block the development of EAE | development / induction of EAE (disease occurrence and severity) ([1]; listed as Cinnabaric Acid): inhibits the induction of EAE | proliferation of splenocytes on restimulation with MOG peptide ([1]; splenocytes from CA treated mice): significantly greater amount of proliferation | AHR agonist activity (activation of AHR-responsive reporter) (AHR): activates AHR responsive (Dioxin Responsive Elements) | AHR agonist activity (activation of AHR-responsive reporter) (AHR; listed as CA): able to bind to and activate the AHR at much lower concentrations than that observed for 3-HAA; also recorded: potent agonist of the AhR | displacement / inhibition of TCDD binding to human AHR (human AHR protein): displaces Dioxin (TCDD) | displacement / inhibition of TCDD binding to human AHR (human AHR protein; listed as CA): able to bind to and activate the AHR at much lower concentrations than that observed for 3-HAA; also recorded: dose-dependent inhibition of TCDD binding | IL-22 induction (human naïve CD4+ T cells): potently induces IL-22 | IL-22 induction (human naïve CD4+ T cells; listed as CA): stimulate the differentiation of a newly defined subset of human T cells that produce the cytokine IL-22; also recorded: promoted IL-22 production more strongly than any other tryptophan metabolite tested; also recorded: potently induces IL-22 | Foxp3 expression (frequency of CD4+Foxp3+ T cells) [2]: did not appear to promote Foxp3 upregulation
